This assay has as its system serotonin (5-hydroxytryptamine (5HT)) uptake. Put plainly: [3H]-Serotonin uptake in rat whole brain and hypothalamic synaptosomes. The assay is classed as biochemical. Particulars: [3H]-5HT 50 nM, 37° C., 5 minutes. As to the method:
[^3 H]-Serotonin Uptake in Rat Whole Brain and Hypothalamic Synaptosomes
This activity is determined in an assay which measures [^3 H]-serotoninuptake in rat whole brain and hypothalamic synaptosomes. The assay described below is used as a biochemical screen for potential antidepressants which block serotonin (5-hydroxytryptamine (5HT)) uptake.
Male CR Wistar rats (100-125 g)
1. Krebs-Henseleit Bicarbonate Buffer, pH 7.4 (KHBB):
The batch is aerated for 60 minutes with 95% 02 /5% CO2, the pH is checked to insure it is at 7.4±0.1, then add bovine serum albumin (Sigma cat# A-7906) 1 mg/ml.
3. Sucrose solution: 0.32M sucrose containing 5 mM HEPES and 0.1 mM EDTA; pH to 7.3 using Tris base.
4. A 0.1 mM stock solution of serotonin creatinine SO4 is made up in 0.01N HCl. This is used to dilute the specific activity of the radiolabeled 5HT.
The final desired concentration of [^3 H]-5HT in the assay is 50 nM. The dilution factor is 0.8. The KHBB is made up to contain 62.5 nM of [^3 H]-5HT.
6. For most assays, a 0.5 mM stock solution of the test compound is made up initially in either 10 μl of glacial acetic acid, 100 μl DMSO or 10 μl of the recrystallization solvent, to which is added approximately 10 ml of distilled water. Compounds are initially screened in duplicate at 3 concentrations (10^-8, 10^-7 and 10^-6 M) made up in water.
The Percoll method for preparing synaptosomes has been modified from Nagy, A., Delgado-Escueta, A. V. J. Neurochem. 43, 1114 (1984) and Dunkley, P. R., Jarvie, R. E., Heath, J. W., Kidd, G. J., Rostas, J. A. P. Brain Research 372, 115 (1986). Male Wistar rats are decapitated and the brain rapidly removed. Whole brain (minus cerebellum) is weighed and homogenized in 15 volumes of ice cold Sucrose solution using a Potter-Elvejhem homogenizer. The following procedures are performed on ice. Homogenization should be done with 4-5 up and down strokes at medium speeds (setting 4.5 to 5) to minimize synaptosome lysis. The homogenate is centrifuged at 1000 g (3000 rpm, Sorvall SS-34 rotor) for 10 minutes at 0°-4° C.
The Percoll gradient tubes are carefully placed into a Beckman SW-28 swinging bucket rotor and spun in a Beckman XL90 ultracentrifuge using the following program: speed, 11,000 rpm (15,000 g) for 30 minutes at 4° C.; slow acceleration and deceleration (acceleration setting 9; deceleration setting 3). Tubes are carefully removed, and the top layer and the top part of the middle (red) layer are discarded using a pasteur pipette. The synaptosomes are located in the white fluffy band at the interface between the 10% and 21% Percoll layers. This is carefully removed, placed in a centrifuge tube, diluted with KHBB and spun at 21,000 g (13,000 rpm, Sorvall SS-34 rotor). The pellet (synaptosomes) is resuspended in KHBB (10 vol per gram original brain wet weight; 1 brain minus cerebellum weighs approximately 1.2 g; 2.5 brains are needed per typical assay).
200 μl of the tissue suspension are added to each of 24 tubes (at a time) containing the 20 μl of vehicle or drug on ice. Three minutes later, 800 μl of KHBB containing [^3 H]-5HT are added, and the tubes are vortexed. The rack containing the 24 tubes is moved from the ice bath to a water bath set at 37° C. The tubes are incubated for 5 minutes under 95% O2 /5% CO2.

Structures can show the parent of a compound that is named as a salt.

Regarding `CCC1c2ccccc2CN1c1ccncc1` (centres unmarked) [2,3-Dihydro-1-Ethyl-2-(4-Pyridyl)-1H-Isoindole Maleate], half-maximal inhibition (IC50) required 1140 nM. As for `CC1c2ccccc2CN1c1ccncc1` (centres unmarked) [2,3-Dihydro-1-Methyl-2-(4-Pyridyl)-1H-Isoindole Fumarate], half-maximal inhibition (IC50) was put at 736 nM. In turn, `CCCC1c2ccccc2CN1c1ccncc1` (centres unmarked) [2,3-Dihydro-1-Propyl-2-(4-Pyridyl)-1H-Isoindole Maleate] displayed an IC50 of 725 nM. Consider `c1ccc2c(c1)CN(c1ccncc1)C2` [2,3-Dihydro-2-(4-Pyridyl)-1H-Isoindole Maleate], for which 880 nM corresponded to half-maximal inhibition (IC50). The result for `CC(C)CC1c2ccccc2CN1c1ccncc1` (centres unmarked) [2,3-dihydro-1-(2-methylpropyl)-2-(4-pyridyl)-1H-isoindole maleate] reads 849 nM.

By IC50 is commonly meant the concentration that inhibits the measured activity by half. Low readings indicate greater potency, high ones weaker potency.

The values are drawn from patent US5874583A, “2,3-dihydro-1H-isoindole derivatives” (Hoechst Marion Roussel Inc., priority 1997, dated 1999).
